Source: ChEMBL document CHEMBL1123826, “Nitrogen bridgehead compounds. 66. Bronchodilator nitrogen bridgehead compounds with a pyrimidinone moiety” (J Med Chem, 1987)

Assays:
Cavia porcellus [1] = experiment: Compound was tested for Bronchodilator activity against serotonin-induced spasm in guinea pig by Konzett-Rossler test; dose administered by intraduodenal route.; type: functional; conditions: read-out: ID50 (the source's name)
Cavia porcellus [2] = experiment: Compound was tested for Bronchodilator activity against acetylcholine-induced spasm in guinea pig by Konzett-Rossler test; dose administered by intraduodenal route.; type: functional; conditions: read-out: ID50 (the source's name)
Cavia porcellus [3] = experiment: Compound was tested for Bronchodilator activity against histamine-induced spasm in guinea pig by Konzett-Rossler test; dose administered by intraduodenal route.; type: functional; conditions: read-out: ID50 (the source's name)
[4] = Relative potency calculated from ratio of IC50 of theophylline / IC50 was determined; type: functional
Cavia porcellus [5] = species: Cavia porcellus; experiment: Bronchodilator activity against serotonin-induced spasm in guinea pig; type: functional; conditions: read-out: ID50 (the source's name)
Cavia porcellus [6] = species: Cavia porcellus; experiment: Bronchodilator activity against histamine-induced spasm in guinea pig; type: functional; conditions: read-out: ID50 (the source's name)
Cavia porcellus [7] = species: Cavia porcellus; experiment: Bronchodilator activity against acetylcholine-induced spasm in guinea pig; type: functional; conditions: read-out: ID50 (the source's name)
[8] = Relative potency is ratio of IC50 of theophylline / IC50 was determined; type: functional
Homo sapiens [9] = species: Homo sapiens; experiment: compound was tested for Bronchodilator activity against isolated human bronchus contracted by carbachol; type: functional
Homo sapiens [10] = species: Homo sapiens; experiment: Compound was tested for Bronchodilator activity against isolated human bronchus contracted by carbachol; type: functional
Cavia porcellus [11] = species: Cavia porcellus; experiment: […] activity was evaluated by inhibition of nicotinate induced spasm in isolated guinea pig ileum; type: functional
Cavia porcellus [12] = species: Cavia porcellus; experiment: […] activity was evaluated by inhibition of acetylcholine induced spasm in isolated guinea pig ileum; type: functional
Cavia porcellus [13] = species: Cavia porcellus; experiment: […] activity was evaluated by inhibition of BaCl2 induced spasm in isolated guinea pig ileum; type: functional
Cavia porcellus [14] = species: Cavia porcellus; experiment: […] activity was evaluated by inhibition of histamine induced spasm in isolated guinea pig ileum; type: functional
Cavia porcellus [15] = species: Cavia porcellus; experiment: Compound was tested for Anticholenergic activity on isolated guinea pig trachea contracted by carbachol; type: functional; conditions: for Kb: read-out: pA2 (converted)
Cavia porcellus [16] = species: Cavia porcellus; experiment: […] activity was evaluated by inhibition of serotonin induced spasm in isolated guinea pig ileum; type: functional
[17] = Ratio of pA2 to pD2 was determined on isolated guinea pig trachea; type: functional
Cavia porcellus [18] = species: Cavia porcellus; experiment: Compound was tested for Bronchodilator activity against acetylcholine-induced spasm in guinea pig by Konzett-Rossler test; type: organism-based; conditions: in vivo
Cavia porcellus [19] = experiment: Compound was tested for Bronchodilator activity against serotonin-induced spasm in guinea pig by Konzett-Rossler test; dose administered by intraduodenal route; type: functional; conditions: read-out: ID50 (the source's name)
[20] = Homo sapiens, Bronchus, read-out: IC50

SMILES	ED50 (Cavia porcellus [5]) [µmol/kg]	ED50 (Cavia porcellus [6]) [µmol/kg]	ED50 (Cavia porcellus [7]) [µmol/kg]	further results
Cc1cccc2c(=O)n3c(nc12)CCCCC3				ED50 (Cavia porcellus [1]): > 32 µmol/kg; ED50 (Cavia porcellus [2]): > 32 µmol/kg; ED50 (Cavia porcellus [3]): > 32 µmol/kg
O=c1c2c(nc3n1CCCCC3)CCCC2 [listing 1 of 2 here]				Relative potency [4]: 28
O=c1c2c(nc3n1CCCCC3)CCCC2 [listing 2 of 2 here]	3	3		
S=c1c2c(nc3n1CCCCC3)CCCC2	> 320	> 320	> 320	
O=c1c2ccccc2nc2n1CCCCCC2	> 100	61.8	61.8	
CCOC(=O)c1c[n+](C)c2n(c1=O)C(C)CCC2 (configuration not stated) [RIMAZOLIUM METILSULFATE]	14	8	31	
O=C(O)c1ccc2nc3n(c(=O)c2c1)CCCCC3	> 100	> 100	> 100	
CCc1c(C)nc2cc(C)ccn2c1=O	29.7	20.9	36.7	
O=C(O)c1ccc2c(=O)n3c(nc2c1)CCCCC3	> 100	> 100	> 100	
COC(=O)c1ccc2nc3n(c(=O)c2c1)CCCCC3				ED50 (Cavia porcellus [1]): 32 µmol/kg; ED50 (Cavia porcellus [2]): > 32 µmol/kg; ED50 (Cavia porcellus [3]): 32 µmol/kg
O=C(O)c1ccc2nc3n(c(=O)c2c1)CCCC3	> 100	> 100	> 100	
Cc1cccn2c(=O)c3c(nc12)CCCC3	15.6	7	15.7	Relative potency [8]: 2.26; IC50 (Homo sapiens [9]; [20]): 66.6 µM
Cc1cccn2c(=O)c3c(nc12)CCC3	11.2	10.2	21.6	Relative potency [8]: 1.54; IC50 (Homo sapiens [10]; [20]): 97.7 µM
CC1CCc2nc3c(c(=O)n21)CCCC3 (configuration not stated)	46.8	19.7	74.6	
CCc1c(C)nc2n(c1=O)CCC(C)C2 (configuration not stated)	18.4	23.2	28.2	Relative potency [8]: 2.02; IC50 (Homo sapiens [9]; [20]): 74.6 µM
O=c1c2c(nc3n1CCCCCC3)CCCC2	44.6	27.1	58.5	
CC1CCc2nc3c(c(=O)n2C1)CCC3 (configuration not stated)	39.6	7.2	17.6	
CC1CCCc2nc3ccccc3c(=O)n21 (configuration not stated)	30.2	27	> 100	
CCc1c(C)nc2ccc(C)cn2c1=O	16.6	12.4	24	
Cc1cccc2nc3c(c(=O)n12)CCCC3	6.1	9.7	10	
CCOC(=O)c1ccc2c(=O)n3c(nc2c1)CCC3	> 32	14.4	> 32	
CC1CCn2c1nc1ccccc1c2=O (configuration not stated)	29.4	27.3	45.8	
O=c1nc2n(c3c1CCCC3)CCCCC2	55.1	> 32	> 32	
CC1CCc2nc3c(c(=O)n2C1)CCCC3 (configuration not stated)	38.1	23.6	28.9	
O=C(O)c1ccc2c(=O)n3c(nc2c1)CCCC3	> 100	> 100	> 100	

SMILES	ED50 (Cavia porcellus [5]) [µmol/kg]	ED50 (Cavia porcellus [6]) [µmol/kg]	ED50 (Cavia porcellus [7]) [µmol/kg]	further results
O=c1c2c(nc3n1CCCCC3)CCCCCC2	> 100	33	2.26	
O=c1c2c(nc3n1CCCCC3)CCC2				Relative potency [8]: 9.93; IC50 (Cavia porcellus [11]): 75 µM; IC50 (Cavia porcellus [12]): 2.53 µM; IC50 (Cavia porcellus [13]): 113 uM l-1; IC50 (Cavia porcellus [14]): > 100 µM; IC50 (Homo sapiens [10]): 15.2 µM; pD2 (Cavia porcellus [15]): 5.37; Kb (Cavia porcellus [15]): 0.229 µM; IC50 (Cavia porcellus [16]): 112 uM l-1; Ratio [17]: 1.23
Cc1ccn2c(=O)c3c(nc2c1)CCCC3	21.9	20.4	37.7	
O=c1nc2n(c3c1CCC3)CCC2	> 100	> 100	> 100	
S=c1c2c(nc3n1CCCCC3)CCC2	> 320	> 320	> 320	
Cc1ccc2nc3c(c(=O)n2c1)CCC3	14.4	29.2	29.1	
Cl.O=c1c2c(nc3ccccn13)CCC2	17.6	10.5	32.4	Relative potency [8]: 0.17; IC50 (Homo sapiens [10]): 879 uM l-1
CCc1c(C)nc2cccc(C)n2c1=O	9.6	10.2	25.6	Relative potency [8]: 2.1; IC50 (Homo sapiens [10]; [20]): 71.8 µM
CC1CCCc2nc3c(c(=O)n21)CCCC3 (configuration not stated)	14	24.7	20.3	
CC1CCc2nc3ccccc3c(=O)n21 (configuration not stated)	12.2	10.4	48.2	
O=c1c2c(nc3ccccn13)CCCCCC2	49	32.7	53.3	
COc1ccccc1.Cn1c(=O)c2nc[nH]c2n(C)c1=O	10	10	22	Relative potency [8]: 1; IC50 (Homo sapiens [10]): 151 uM l-1
CCOC(=O)c1ccc2c(=O)n3c(nc2c1)CCCC3	> 32	15.1	> 32	
CC1CCCn2c1nc1c(c2=O)CCCC1 (configuration not stated)	36.2	19.8	47.1	
CC1CCn2c(nc3c(c2=O)CCC3)C1 (configuration not stated)	22.5	18.9	56.4	Relative potency [8]: 1.07; IC50 (Homo sapiens [9]): 141 uM l-1
O=c1nc2n(c3c1CCCCC3)CCC2	> 32	> 32		ID50 (Cavia porcellus [18]): > 32 µM/kg
O=c1c2c(nc3n1CCCC3)CCC2	24.1	25.7	23.7	
O=c1c2ccccc2nc2n1CCC2	21.2	16.9	37.7	
O=c1c2c(nc3n1CCC3)CCCCC2	33	27.6	38.5	
Cc1ccc2nc3c(c(=O)n2c1)CCCC3	20.4	15.6	32	
Cl.O=c1c2c(nc3n1CCCCC3)CCCC2				IC50 (Cavia porcellus [11]): 49.5 µM; IC50 (Cavia porcellus [12]): 5.01 µM; IC50 (Cavia porcellus [13]): 123 uM l-1; IC50 (Cavia porcellus [14]): > 100 µM; IC50 (Homo sapiens [10]): 5.4 µM; pD2 (Cavia porcellus [15]): 5.39; Kb (Cavia porcellus [15]): 1.91 µM; IC50 (Cavia porcellus [16]): 752 uM l-1; Ratio [17]: 1.06
Cc1cccn2c(=O)c3c(nc12)CCCCCC3	14.3	23.8	42.6	
CCc1c(C)nc2c(C)cccn2c1=O	12.3	5.1	36.4	
Cc1ccc2c(=O)n3c(nc2c1)CCCCC3	39.4	25.6	76	
Cc1cccc2nc3c(c(=O)n12)CCC3	4.3	7.2	29.3	

SMILES	ED50 (Cavia porcellus [5]) [µmol/kg]	ED50 (Cavia porcellus [6]) [µmol/kg]	ED50 (Cavia porcellus [7]) [µmol/kg]	further results
O=C(O)c1ccc2nc3n(c(=O)c2c1)CCC3	> 100	215	> 100	
CCOC(=O)c1ccc2c(=O)n3c(nc2c1)CCCCC3				ED50 (Cavia porcellus [2]): 24.5 µmol/kg; ED50 (Cavia porcellus [3]): 32 µmol/kg; ED50 (Cavia porcellus [19]): 10 µmol/kg
O=c1c2c(nc3n1CCCC3)CCCC2	33.3	22	44.5	
O=c1c2ccccc2nc2n1CCCC2	15.2	11.1	31.1	
O=c1c2c(nc3n1CCC3)CCCC2	29.8	24.1	51.1	
O=c1c2c(nc3n1CCCCC3)CCCCC2	30.8	33.8	7.2	
CC1CCCn2c1nc1c(c2=O)CCC1 (configuration not stated)	7.7	11.5	12.8	
O=c1c2cc3c(cc2nc2n1CCCCC2)OCO3	13.1	> 32	22.7	
O=c1c2c(nc3n1CCCC3)CCCCC2	12.7	15.2	11.8	
COC(=O)c1ccc2nc3n(c(=O)c2c1)CCCC3	12.3	16.8	> 32	
CC1CCCc2nc3c(c(=O)n21)CCC3 (configuration not stated)	13.8	11.7	18.2	
O=C(O)c1ccc2c(=O)n3c(nc2c1)CCC3	> 100	> 100	> 100	
CC1CCCCn2c1nc1c(c2=O)CCCC1 (configuration not stated)				ED50 (Cavia porcellus [1]): > 320 µmol/kg; ED50 (Cavia porcellus [2]): > 320 µmol/kg; ED50 (Cavia porcellus [3]): > 320 µmol/kg
O=c1c2c(nc3n1CCC3)CCC2	82.5	46.1	> 100	
Cc1ccc2nc3n(c(=O)c2c1)CCC3	11.3	29.8	29	
COC(=O)c1ccc2nc3n(c(=O)c2c1)CCC3	11.7	27	44.1	
CC1CCn2c(nc3c(c2=O)CCCC3)C1 (configuration not stated)	39.3	25.7	29.9	
CCc1c(C)nc2ccccn2c1=O.Cl	12	8.6	29.4	Relative potency [8]: 1.19; IC50 (Homo sapiens [10]): 127 uM l-1
O=c1c2c(nc3n1CCC3)CCCCCC2	57.1	164	100	
O=c1nc2n(c3c1CCCC3)CCC2	107	> 100	> 100	
Cc1ccc2nc3n(c(=O)c2c1)CCCCC3	44.7	25.3	16	
Cl.O=c1c2c(nc3ccccn13)CCCC2	16.7	6.1	18.2	Relative potency [8]: 1.18; IC50 (Homo sapiens [10]): 127 uM l-1
Cc1ccn2c(=O)c3c(nc2c1)CCC3	22.6	15.7	29.6	
